# According to patent publication US7417156B2, “Orally active, antimalarial, anticancer, artemisinin-derived trioxane dimers” (Johns Hopkins University, priority 2002, dated 2008):
# Experiments:
# SK-MEL-28 = experiment: NCI 60 cell line panel screen (SRB); format: cell-based, human; details: for Log10GI50: Melanoma, SK-MEL-28; for Log10LC50 / Log10TGI50: SK-MEL-28 (Melanoma); for Log10LC50: LC50: PG=−50; for Log10TGI50: TGI: PG=0
# K-562 = experiment: NCI 60 cell line panel screen (SRB); format: cell-based, human
# NCI-H460 = experiment: NCI 60 cell line panel screen (SRB); format: cell-based, human; details: for Log10LC50 / Log10TGI50: NCI-H460 (Non-Small Cell Lung Cancer); for Log10LC50: LC50: PG=−50; for Log10TGI50: TGI: PG=0; for Log10GI50: Non-Small Cell Lung Cancer, NCI-H460
# MOLT-4 = tested on: MOLT-4
# Protocol: Growth Inhibition. […] The screening assay is performed on 96-well microtitre plates. Relatively high initial inoculation densities are used, in order to permit measurement of “time-zero” values and to enhance the screen's ability to detect and provide some differentiation between growth inhibition and cytotoxic response parameters. […] The inoculated microtitre plates are pre-incubated for 24 hours at 37° C. prior to drug additions. The five drug dilutions tested routinely range from 10^−4 to 10^−8 molar. Higher or lower concentration ranges may be selected on a non-routine basis if appropriate solubility and/or prior biological information or other screening data so dictate. Duplicate wells are prepared for all concentrations, (concentration is often denoted by placing brackets around a number); “time-zero” and “no drug” controls are also provided for each test. The minimum amount of compound required for a one-time evaluation in the routine screen can be calculated from the knowledge that each test requires a total of approximately 40 ml (0.04 liter) of cell culture medium containing the highest desired drug concentration. […] After a 48 hour incubation (37° C.) with the test compound, the cells are fixed in situ to the bottoms of the microtitre wells by addition of 50 μl of either 50% trichloroacetic acid (for adherent cell lines) or 80% trichloroacetic acid (for settled cell suspension lines), followed by incubation for 60 minutes at 4° C. The cellular protein in each well is assayed using a sulforhodamine B (SRB) stain procedure. Briefly, after discarding the supernatants, the microtitre plates are washed 5 times with deionized water and air-dried. […] Unbound SRB is removed by washing 5 times with 1% acetic acid. […] SRB is a bright pink anionic dye which, in dilute acetic acid, binds electrostatically to the basic amino acids of TCA-fixed cells. Cryopreserved master stocks of all the lines are maintained, and cultures used for screening are replaced from the master stock after no more than twenty passages in the screening laboratory. The cell line panel consists of 60 lines, organized into nine, disease-related subpanels including leukemia, non-small-cell lung cancer, colon, CNS, melanoma, ovarian, renal, prostate and breast cancers.
# At this value the increase from time tzero, in the number or mass of cells in the test well is only 50% as much as the corresponding increase in the control well during this period of the experiment, see Table III. A drug effect of this intensity is interpreted as primary growth inhibition.
# At this value the number or mass of cells in the well at the end of the experiment equals the number or mass of cells in the well at time tzero, see Table IV. A drug effect of this intensity is regarded as cytostasis.
# At this value, the number or mass of cells in the test well at the end of the experiment is half that at time tzero, see Table V. This is interpreted as cytotoxicity.
# Dose response curves, shown in the above mentioned Figures, are obtained by exposing various cancer cell lines to compounds having a known concentration ([log10M]), as discussed in detail above, and then plotting the percentage growth of each cell line for each concentration. […] Percentage growth is determined by dividing the number or mass of cells in the test well by the number or mass of cells in a control well. […] As discussed previously, the five drug dilutions routinely tested range from 10^−4 to […].
# HS 578T = experiment: NCI 60 cell line panel screen (SRB); format: cell-based, human; details: for Log10GI50: Breast Cancer, HS 578T; for Log10LC50 / Log10TGI50: HS 578T (Breast Cancer); for Log10LC50: LC50: PG=−50; for Log10TGI50: TGI: PG=0
# UACC-257 = experiment: NCI 60 cell line panel screen (SRB); format: cell-based, human; details: for Log10LC50 / Log10TGI50: UACC-257 (Melanoma); for Log10LC50: LC50: PG=−50; for Log10TGI50: TGI: PG=0
# CCRF-CEM = experiment: NCI 60 cell line panel screen (SRB); format: cell-based, human; details: for Log10LC50 / Log10TGI50: CCRF-CEM (Leukemia); for Log10LC50: LC50: PG=−50; for Log10TGI50: TGI: PG=0
# TK-10 = experiment: NCI 60 cell line panel screen (SRB); format: cell-based, human; details: for Log10GI50: Renal Cancer, TK-10; for Log10LC50 / Log10TGI50: TK-10 (Renal Cancer); for Log10LC50: LC50: PG=−50; for Log10TGI50: TGI: PG=0
# SNB-75 = experiment: NCI 60 cell line panel screen (SRB); format: cell-based, human
# NCI-H23 = experiment: NCI 60 cell line panel screen (SRB); format: cell-based, human; details: for Log10LC50 / Log10TGI50: NCI-H23 (Non-Small Cell Lung Cancer); for Log10LC50: LC50: PG=−50; for Log10TGI50: TGI: PG=0; for Log10GI50: Non-Small Cell Lung Cancer, NCI-H23
# SF-539 = experiment: NCI 60 cell line panel screen (SRB); format: cell-based, human; details: for Log10GI50: CNS Cancer, SF-539; for Log10LC50: LC50: PG=−50
# SK-MEL-2 = experiment: NCI 60 cell line panel screen (SRB); format: cell-based, human; details: for Log10GI50: Melanoma, SK-MEL-2; for Log10LC50: SK-MEL2 (Melanoma), LC50: PG=−50; for Log10TGI50: SK-MEL-2 (Melanoma), TGI: PG=0
# OVCAR-5 = experiment: NCI 60 cell line panel screen (SRB); format: cell-based, human; details: for Log10LC50 / Log10TGI50: OVCAR-5 (Ovarian Cancer); for Log10LC50: LC50: PG=−50; for Log10TGI50: TGI: PG=0; for Log10GI50: Ovarian Cancer, OVCAR-5
# HOP-92 = experiment: NCI 60 cell line panel screen (SRB); format: cell-based, human; details: for Log10LC50 / Log10TGI50: HOP-92 (Non-Small Cell Lung Cancer); for Log10LC50: LC50: PG=−50; for Log10TGI50: TGI: PG=0; for Log10GI50: Non-Small Cell Lung Cancer, HOP-92
# SK-OV-3 = experiment: NCI 60 cell line panel screen (SRB); format: cell-based, human; details: for Log10LC50 / Log10TGI50: SK-OV-3 (Ovarian Cancer); for Log10LC50: LC50: PG=−50; for Log10TGI50: TGI: PG=0
# OVCAR-8 = experiment: NCI 60 cell line panel screen (SRB); format: cell-based, human; details: for Log10LC50: LC50: PG=−50; for Log10GI50: Ovarian Cancer, OVCAR-8
# SNB-19 = experiment: NCI 60 cell line panel screen (SRB); format: cell-based, human; details: for Log10GI50: CNS Cancer, SNB-19; for Log10LC50 / Log10TGI50: SNB-19 (CNS Cancer); for Log10LC50: LC50: PG=−50; for Log10TGI50: TGI: PG=0
# RPMI-8226 = experiment: NCI 60 cell line panel screen (SRB); format: cell-based, human
structure (smiles),measurement,setting,value
"C[C@@H]1CC[C@H]2[C@@H](C)C(CC(O)(CC3OC4O[C@]5(C)CC[C@H]6[C@H](C)CC[C@@H]([C@H]3C)C46OO5)c3ccc(C(=O)O)cc3)OC3O[C@]4(C)CCC1C32OO4 (stereo partly shown) [Compound 11b, bis-trioxane tertiary alcohol benzoic acid]",Log10GI50,SK-MEL-28,−6.40
same,Log10LC50,SK-MEL-28,>−4.30 log10M
same,Log10TGI50,SK-MEL-28,>−4.30 log10M
same,Log10LC50,"K-562; K-562 (Leukemia), LC50: PG=−50",>−4.30 log10M
same,Log10TGI50,"K-562; K-562 (Leukemia), TGI: PG=0",>−4.30 log10M
same,Log10GI50,"K-562; Leukemia, K-562",<−8.30
same,Log10LC50,NCI-H460,>−4.30 log10M
same,Log10TGI50,NCI-H460,>−4.30 log10M
same,Log10GI50,NCI-H460,<−8.30
same,Log10GI50,"MOLT-4; Leukemia, MOLT-4",<−8.30
same,Log10LC50,"MOLT-4; MOLT-4 (Leukemia), LC50: PG=−50",>−4.30 log10M
same,Log10TGI50,"MOLT-4; MOLT-4 (Leukemia), TGI: PG=0",>−4.30 log10M
same,Log10GI50,HS 578T,−5.15
same,Log10LC50,HS 578T,>−4.30 log10M
same,Log10TGI50,HS 578T,>−4.31 log10M
same,Log10LC50,UACC-257,>−4.30 log10M
same,Log10TGI50,UACC-257,>−4.30 log10M
same,Log10LC50,CCRF-CEM,>−4.30 log10M
same,Log10TGI50,CCRF-CEM,>−4.30 log10M
same,Log10GI50,"CCRF-CEM; Leukemia, CCRF-CEM",−8.07
same,Log10GI50,TK-10,−7.81
same,Log10LC50,TK-10,>−4.30 log10M
same,Log10TGI50,TK-10,−5.86 log10M
same,Log10GI50,"SNB-75; CNS Cancer, SNB-75",−7.40
same,Log10LC50,"SNB-75; SNB-75 (CNS Cancer), LC50: PG=−50",>−4.30 log10M
same,Log10TGI50,"SNB-75; SNB-75 (CNS Cancer), TGI: PG=0",>−4.30 log10M
same,Log10LC50,NCI-H23,>−4.30 log10M
same,Log10TGI50,NCI-H23,−4.63 log10M
same,Log10GI50,NCI-H23,−8.19
same,Log10GI50,SF-539,−4.80
same,Log10LC50,SF-539; SF-539 (CNS Cancer),>−4.30 log10M
same,Log10TGI50,"SF-539; SF-539 (CNS Cancer), TGI: PG=0",>−4.30 log10M
same,Log10GI50,SK-MEL-2,−6.43
same,Log10LC50,SK-MEL-2,>−4.30 log10M
same,Log10TGI50,SK-MEL-2,>−4.30 log10M
same,Log10LC50,OVCAR-5,>−4.30 log10M
same,Log10TGI50,OVCAR-5,−6.95 log10M
same,Log10GI50,OVCAR-5,<−8.30
same,Log10LC50,HOP-92,>−4.30 log10M
same,Log10TGI50,HOP-92,>−4.30 log10M
same,Log10GI50,HOP-92,−7.43
same,Log10LC50,SK-OV-3,>−4.30 log10M
same,Log10TGI50,SK-OV-3,>−4.30 log10M
same,Log10LC50,OVCAR-8; OVCAR-8 (Ovarian Cancer),>−4.30 log10M
same,Log10TGI50,"OVCAR-8; OVCAR-8 (Ovarian Cancer), TGI: PG=0",>−4.30 log10M
same,Log10GI50,OVCAR-8,−5.26
same,Log10GI50,SNB-19,−6.53
same,Log10LC50,SNB-19,>−4.30 log10M
same,Log10TGI50,SNB-19,>−4.30 log10M
"CC1CCC2C(C)C(CC(COC(=O)c3cc[n+]([O-])cc3)CC3OC4OC5(C)CCC6C(C)CCC(C3C)C46OO5)OC3OC4(C)CCC1C32OO4 (stereo not shown) [Compound 13, bis-trioxane primary alcohol isonicotinate N-oxide]",Log10GI50,SK-MEL-28,−5.13
same,Log10LC50,SK-MEL-28,−4.34 log10M
same,Log10TGI50,SK-MEL-28,−4.73 log10M
same,Log10LC50,NCI-H460,−4.36 log10M
same,Log10TGI50,NCI-H460,−4.92 log10M
same,Log10GI50,NCI-H460,<−8.30
same,Log10GI50,"RPMI-8226; Leukemia, RPMI-8226",<−8.30
same,Log10LC50,"RPMI-8226; RPMI-8226 (Leukemia), LC50: PG=−50",>−4.30 log10M
same,Log10TGI50,"RPMI-8226; RPMI-8226 (Leukemia), TGI: PG=0",>−4.30 log10M
same,Log10GI50,HS 578T,<−8.30
same,Log10LC50,HS 578T,−4.35 log10M
same,Log10TGI50,HS 578T,−5.00 log10M
same,Log10GI50,"UACC-257; Melanoma, UACC-257",−5.15
same,Log10LC50,UACC-257,>−4.30 log10M
same,Log10TGI50,UACC-257,−4.65 log10M
same,Log10LC50,CCRF-CEM,>−4.30 log10M
same,Log10TGI50,CCRF-CEM,>−4.30 log10M
same,Log10GI50,TK-10,<−8.30
same,Log10LC50,TK-10,−4.53 log10M
same,Log10TGI50,TK-10,−5.34 log10M
same,Log10LC50,NCI-H23,−4.62 log10M
same,Log10TGI50,NCI-H23,−5.17 log10M
same,Log10GI50,NCI-H23,<−8.30
same,Log10GI50,SF-539,<−8.30
same,Log10LC50,SF-539; SF-539 (CNS Cancer),−4.56 log10M
same,Log10GI50,SK-MEL-2,−5.12
same,Log10LC50,SK-MEL-2,>−4.30 log10M
same,Log10TGI50,SK-MEL-2,>−4.30 log10M
same,Log10LC50,OVCAR-5,−4.66 log10M
same,Log10TGI50,OVCAR-5,−5.14 log10M
same,Log10GI50,OVCAR-5,<−8.30
same,Log10LC50,HOP-92,−4.74 log10M
same,Log10TGI50,HOP-92,−5.27 log10M
same,Log10GI50,HOP-92,−8.04
same,Log10GI50,"SK-OV-3; Ovarian Cancer, SK-OV-3",−5.13
same,Log10LC50,SK-OV-3,−4.31 log10M
same,Log10TGI50,SK-OV-3,−4.72 log10M
same,Log10LC50,OVCAR-8; OVCAR-8 (Ovarian Cancer),>−4.30 log10M
same,Log10GI50,OVCAR-8,−7.69
same,Log10GI50,SNB-19,−5.08
same,Log10LC50,SNB-19,>−4.30 log10M
same,Log10TGI50,SNB-19,>−4.30 log10M
